Experimental data: ChEMBL document CHEMBL1201862, “PubChem BioAssay data set” (2004)
The source made the active and inactive calls.

How the values were obtained:
[1] = target: T1, Sphingosine 1-phosphate receptor 2 (Homo sapiens, UniProt O95136); assay: Dose Response Cell-Based Assay for Agonists of the Sphingosine 1-Phosphate Receptor 2 (S1P2): Purchased Analogues. [Related pubchem assays: 1192, 373, 439 ]; format: functional
[2] = target: Sphingosine 1-phosphate receptor 1 (Homo sapiens, UniProt P21453); assay: Dose Response Cell-Based Assay for Agonists of the Sphingosine 1-Phosphate Receptor 1 (S1P1): Purchased Analogues. [Related pubchem assays: 1192, 373, 439 ]; format: functional
Sequence of Sphingosine 1-phosphate receptor 1 (P21453 whole entry): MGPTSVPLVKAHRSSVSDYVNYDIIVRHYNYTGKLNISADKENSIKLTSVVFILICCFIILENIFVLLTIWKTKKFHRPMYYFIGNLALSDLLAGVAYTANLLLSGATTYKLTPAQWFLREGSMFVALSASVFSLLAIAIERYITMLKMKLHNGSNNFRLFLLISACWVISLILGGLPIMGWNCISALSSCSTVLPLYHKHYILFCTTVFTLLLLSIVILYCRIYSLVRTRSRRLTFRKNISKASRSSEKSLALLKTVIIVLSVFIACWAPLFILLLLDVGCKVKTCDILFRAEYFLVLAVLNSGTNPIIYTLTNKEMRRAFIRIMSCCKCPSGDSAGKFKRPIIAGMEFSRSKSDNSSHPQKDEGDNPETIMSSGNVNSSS

[3] = target: Sphingosine 1-phosphate receptor 3 (Homo sapiens, UniProt Q99500); assay: Dose Response Cell-Based Assay for Agonists of the Sphingosine 1-Phosphate Receptor 3 (S1P3): Purchased Analogues. [Related pubchem assays: 373, 439 ]; format: functional
Sequence of Sphingosine 1-phosphate receptor 3 (Q99500 whole entry): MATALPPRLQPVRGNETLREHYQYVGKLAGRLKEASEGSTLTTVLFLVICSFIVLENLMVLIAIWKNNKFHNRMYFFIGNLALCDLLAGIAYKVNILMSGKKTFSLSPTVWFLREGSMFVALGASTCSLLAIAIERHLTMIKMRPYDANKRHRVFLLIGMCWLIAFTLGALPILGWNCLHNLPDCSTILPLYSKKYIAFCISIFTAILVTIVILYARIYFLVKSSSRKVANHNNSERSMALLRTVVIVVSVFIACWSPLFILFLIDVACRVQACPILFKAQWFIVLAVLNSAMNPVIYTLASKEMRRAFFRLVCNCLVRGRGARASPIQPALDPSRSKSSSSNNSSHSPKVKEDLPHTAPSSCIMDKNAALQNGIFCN

[4] = target: DNA damage-inducible transcript 3 protein (Mus musculus, UniProt P35639); format: functional, Cricetulus griseus
Sequence of DNA damage-inducible transcript 3 protein (P35639 whole entry): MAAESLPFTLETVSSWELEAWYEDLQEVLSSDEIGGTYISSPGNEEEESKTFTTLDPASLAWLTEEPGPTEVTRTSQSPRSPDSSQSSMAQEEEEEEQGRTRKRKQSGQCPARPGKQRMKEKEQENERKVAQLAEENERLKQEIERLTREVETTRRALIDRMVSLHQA

X-box-binding protein 1 = X-box-binding protein 1 (Homo sapiens, UniProt P17861); format: functional, Cricetulus griseus;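 note: confirmatory dose-response counter-screen serving a CHOP assay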
Sequence of X-box-binding protein 1 (P17861 whole entry): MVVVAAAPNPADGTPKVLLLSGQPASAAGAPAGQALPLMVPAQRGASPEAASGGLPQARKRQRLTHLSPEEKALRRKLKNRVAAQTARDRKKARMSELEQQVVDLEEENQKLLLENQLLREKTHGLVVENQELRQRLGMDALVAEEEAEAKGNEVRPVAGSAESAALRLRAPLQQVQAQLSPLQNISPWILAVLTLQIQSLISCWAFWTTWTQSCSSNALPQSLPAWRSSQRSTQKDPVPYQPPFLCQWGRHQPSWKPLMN

[5] = target: T1, Sphingosine 1-phosphate receptor 2; assay: Late-stage fluorescence-based dose-response cell-based counterscreen assay to identify agonists of the Sphingosine 1-Phosphate Receptor 3 (S1P3): Sphingosine 1-Phosphate Receptor 2 (S1P2) agonist assay.; format: functional
[6] = target: Sphingosine 1-phosphate receptor 4 (Homo sapiens, UniProt O95977); assay: Late-stage fluorescence-based dose-response cell-based counterscreen assay to identify agonists of the Sphingosine 1-Phosphate Receptor 3 (S1P3): Sphingosine 1-Phosphate Receptor 4 (S1P4) agonist assay.; format: functional
Sequence of Sphingosine 1-phosphate receptor 4 (O95977 whole entry): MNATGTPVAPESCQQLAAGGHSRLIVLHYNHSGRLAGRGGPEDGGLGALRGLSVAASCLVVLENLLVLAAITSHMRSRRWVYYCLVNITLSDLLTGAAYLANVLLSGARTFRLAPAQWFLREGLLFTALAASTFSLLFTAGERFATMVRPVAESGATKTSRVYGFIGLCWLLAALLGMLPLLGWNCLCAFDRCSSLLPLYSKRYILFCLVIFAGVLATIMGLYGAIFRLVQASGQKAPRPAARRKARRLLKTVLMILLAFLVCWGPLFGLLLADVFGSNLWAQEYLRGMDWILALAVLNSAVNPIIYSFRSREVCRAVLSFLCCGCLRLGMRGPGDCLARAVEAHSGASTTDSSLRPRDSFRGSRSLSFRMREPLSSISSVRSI

[7] = target: DNA dC->dU-editing enzyme APOBEC-3G (Homo sapiens, UniProt Q9HC16); assay: APOBEC3G deaminase inhibitors, SAR follow-up, biochemical, fluorescence, single-stranded DNA substrate (AID 602136); format: functional; conditions: read-out: IC50_Mean
Sequence of DNA dC->dU-editing enzyme APOBEC-3G (Q9HC16 whole entry): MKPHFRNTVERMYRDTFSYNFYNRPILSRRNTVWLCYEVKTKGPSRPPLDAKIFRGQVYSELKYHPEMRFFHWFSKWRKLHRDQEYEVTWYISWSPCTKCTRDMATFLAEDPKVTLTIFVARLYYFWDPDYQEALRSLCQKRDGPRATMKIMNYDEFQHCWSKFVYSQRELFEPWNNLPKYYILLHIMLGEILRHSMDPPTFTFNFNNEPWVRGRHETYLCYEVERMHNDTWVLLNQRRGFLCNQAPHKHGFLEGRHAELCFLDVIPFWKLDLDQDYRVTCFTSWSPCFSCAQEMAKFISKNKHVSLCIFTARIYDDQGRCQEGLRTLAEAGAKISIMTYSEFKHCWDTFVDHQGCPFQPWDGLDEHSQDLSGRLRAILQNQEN

[8] = target: DNA dC->dU-editing enzyme APOBEC-3A (Homo sapiens, UniProt P31941); assay: SAR analysis of small molecule inhibitors of APOBEC3A DNA Deaminase via a fluorescence-based single-stranded DNA deaminase assay.; format: functional; conditions: read-out: IC50_Mean
Sequence of DNA dC->dU-editing enzyme APOBEC-3A (P31941 whole entry): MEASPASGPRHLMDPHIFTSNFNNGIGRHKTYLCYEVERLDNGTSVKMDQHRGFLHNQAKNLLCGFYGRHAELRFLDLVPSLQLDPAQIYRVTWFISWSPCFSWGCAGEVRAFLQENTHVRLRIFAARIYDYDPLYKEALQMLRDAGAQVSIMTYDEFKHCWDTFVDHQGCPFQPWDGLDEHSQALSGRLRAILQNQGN

[9] = target: T2, Neuropeptides B/W receptor type 1 (Homo sapiens, UniProt P48145); assay: GPR7 antagonist potency, late-stage follow-up, cell-based, fluorescence, dose response, set 5 (AID 588566); format: functional
T2 sequence (P48145 whole entry): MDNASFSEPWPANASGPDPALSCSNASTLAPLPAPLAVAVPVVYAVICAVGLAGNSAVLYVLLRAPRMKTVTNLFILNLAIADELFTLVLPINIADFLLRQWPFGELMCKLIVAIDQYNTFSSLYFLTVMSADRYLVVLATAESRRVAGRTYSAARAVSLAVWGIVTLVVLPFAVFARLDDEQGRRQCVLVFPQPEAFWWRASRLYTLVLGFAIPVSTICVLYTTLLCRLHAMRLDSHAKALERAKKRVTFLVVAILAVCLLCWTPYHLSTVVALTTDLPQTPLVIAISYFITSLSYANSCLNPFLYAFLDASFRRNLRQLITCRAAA

[10] = target: T3, Melanin-concentrating hormone receptor 1 (Homo sapiens, UniProt Q99705); assay: Late-stage fluorescence-based counterscreen for antagonists of the G-protein coupled receptor 7 (GPR7): cell-based dose response assay to identify antagonists of the melanin-concentrating hormone receptor 1 (MCHR1) Set 5.; format: functional
T3 sequence (Q99705 whole entry): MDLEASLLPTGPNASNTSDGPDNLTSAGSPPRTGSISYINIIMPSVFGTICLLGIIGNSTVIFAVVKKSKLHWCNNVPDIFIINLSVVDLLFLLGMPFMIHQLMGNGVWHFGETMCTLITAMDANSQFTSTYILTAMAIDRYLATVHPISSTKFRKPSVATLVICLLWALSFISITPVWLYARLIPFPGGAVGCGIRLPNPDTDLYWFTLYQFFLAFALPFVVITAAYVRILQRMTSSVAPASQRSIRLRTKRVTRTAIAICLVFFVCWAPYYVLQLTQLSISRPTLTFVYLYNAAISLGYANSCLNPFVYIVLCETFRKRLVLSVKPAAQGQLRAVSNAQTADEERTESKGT

[11] = target: T3, Melanin-concentrating hormone receptor 1; assay: Late-stage fluorescence-based counterscreen for antagonists of the G-protein coupled receptor 7 (GPR7): cell-based dose response assay to identify antagonists of the melanin-concentrating hormone receptor 1 (MCHR1) Set 6.; format: functional
[12] = target: T2, Neuropeptides B/W receptor type 1; assay: GPR7 antagonist potency, late-stage follow-up, cell-based, fluorescence, dose response, set 6 (AID 588583); format: functional

T1 sequence (O95136 whole entry): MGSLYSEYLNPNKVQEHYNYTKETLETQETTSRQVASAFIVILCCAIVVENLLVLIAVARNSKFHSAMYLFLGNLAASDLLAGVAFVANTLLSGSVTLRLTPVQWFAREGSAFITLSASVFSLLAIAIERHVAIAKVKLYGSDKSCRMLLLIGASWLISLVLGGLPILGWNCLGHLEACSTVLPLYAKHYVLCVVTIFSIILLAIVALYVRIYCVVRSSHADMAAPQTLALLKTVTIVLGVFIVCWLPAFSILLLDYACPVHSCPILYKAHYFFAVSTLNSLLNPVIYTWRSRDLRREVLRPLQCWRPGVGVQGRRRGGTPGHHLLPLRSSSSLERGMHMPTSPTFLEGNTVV

## CCCc1cc(C(=O)N(C2CCCCC2)C2CCCCC2)no1
[1]
  EC50: > 10 µM (not active)
[2]
  EC50: > 50 µM (not active)
[3]
  EC50: 0.243 µM (active)
[4]
  Absolute IC50 (CHOP): 10 µM
X-box-binding protein 1
  Absolute IC50 (XBP1): 10 µM
[5]
  EC50: > 50 µM (inactive)
[6]
  EC50: > 50 µM (inactive)

## O=C(CSc1nc2cccnc2[nH]1)Nc1cccc(Br)c1
[7]
  IC50: > 99 µM (inactive)
[8]
  IC50: > 99 µM (inactive)

## CCOc1ccc(C(C#N)c2c(Cl)cnn(Cc3cccc4ccccc34)c2=O)cc1 (stereo not drawn)
[9]
  IC50: 0.234 µM (active)
[10]
  IC50: > 20 µM (inactive)

## N#CC(c1c(F)cccc1Cl)c1c(Cl)cnn(Cc2cccc3ccccc23)c1=O (stereo not drawn)
[11]
  IC50: 0.706 µM (active)
[12]
  IC50: 0.706 µM (active)
